The source of these data is patent publication US10882833B2, “Phenylate derivative, preparation method therefor, and pharmaceutical composition and uses thereof” (Institute of Materia Medica, Chinese Academy of Medical …, priority 2016, dated 2021).

Counter-ions that a name gives are not always drawn.

Sequence of interaction between PD-1 and PD-L1 (Q9NZQ7 19-238): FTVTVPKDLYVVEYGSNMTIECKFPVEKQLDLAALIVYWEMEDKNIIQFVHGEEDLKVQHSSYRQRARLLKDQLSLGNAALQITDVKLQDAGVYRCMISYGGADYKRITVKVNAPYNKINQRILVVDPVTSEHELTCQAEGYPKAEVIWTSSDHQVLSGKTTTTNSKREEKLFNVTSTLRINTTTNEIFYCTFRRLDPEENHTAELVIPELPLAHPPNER

In one experiment the target is interaction between PD-1 and PD-L1 (Homo sapiens (Human), UniProt Q9NZQ7). Briefly: Cisbio PD-1/PD-L1 binding assay kit (HTRF). The settings on record: 8-10 concentrations, read-out: IC50, inhibitory activity at molecular level on the interaction between PD-1 and PD-L1. An excerpt:
• 1. In vitro activity evaluation: Cisbio PD-1/PD-L1 binding assay kit was applied for the detection method of in vitro enzymology level. Screening Principles and Methods of PD-1/PD-L1 Small Molecule Inhibitors • 1) Principle: PD-1 protein is with HIS tag, and PD-1 ligand PD-L1 is with hFc tag. Eu labeled anti-hFc antibody and XL665 labeled anti-HIS antibody are combined with the above two label proteins respectively. After laser excitation, energy can be transferred from donor Eu to receptor XL665, allowing XL665 to glow. […] Reagents should be dispensed in the following order. For 384-well white ELISA plate, 2 μl of diluent or target compound diluted with diluent was added to each well, and then 4 μl of PD-1 protein and 4 μl of PD-L1 protein were added per well, incubated for 15 min at room temperature; and 10 μl of a mixture of anti-Tag1-Eu3+ and anti-Tag2-XL665 was added per well and incubated for 1 h to 4 h at room temperature and the fluorescence signals at 665 nm and 620 nm were measured with an Envison instrument. HTRF rate=(665 nm/620 nm)*10^4. 8-10 concentrations were detected for each compound and IC50 was calculated by Graphpad software. • 3) The results of the screening were shown in Table 1.
For the compound `NC(=O)[C@H](CO)NCc1cc(Cl)c(OCc2cccc(-c3ccccc3)c2Br)cc1OCC1CC1` (stereo in doubt) [Example 9, 2-(4-(2-bromo-3-phenylbenzyloxy)-5-chloro-2-(cyclopropylmethoxy)benzylamino)-3-hydroxypropanamide], the half-maximal inhibitory concentration (IC50) (in general, the concentration at which inhibition is half-maximal) is 81.6 nM.

With `NC(=O)COc1cc(OCc2cccc(-c3ccccc3)c2Br)c(Cl)cc1CN[C@@H](CO)C(=O)O` [Example 1, (S)—N-(4-(2-bromo-3-phenylbenzyloxy)-5-chloro-2-(carbamoylmethoxy)benzyl)serine], the half-maximal inhibitory concentration (IC50) worked out at 312 nM. Consider `COc1cc(OCc2cccc(-c3ccccc3)c2Br)c(Cl)cc1CNCCNC(C)=O` [Example 2, N-acetylaminoethyl-4-(2-bromo-3-phenylbenzyloxy)-5-chloro-2-methoxy benzylamine hydrochloride], for which the half-maximal inhibitory concentration (IC50) turned out to be 732 nM. Same read-out and setting: as for `C=CCOc1cc(OCc2cccc(-c3ccccc3)c2Br)c(Cl)cc1CNCCNC(C)=O` [Example 3, N-acetylaminoethyl-4-(2-bromo-3-phenylbenzyloxy)-5-chloro-2-allyloxy benzylamine], the figure is 126 nM. On the same count and under the same terms, as for `C#CCOc1cc(OCc2cccc(-c3ccccc3)c2Br)c(Cl)cc1CNCCNC(C)=O` [Example 4, N-acetylaminoethyl-4-(2-bromo-3-phenylbenzyloxy)-5-chloro-2-(prop-2-ynyloxy)benzylamine], the figure is 1800 nM. On the same count and under the same terms, as for `CC(=O)NCCNCc1cc(Cl)c(OCc2cccc(-c3ccccc3)c2Br)cc1OCC1CC1` [Example 5, N-acetylaminoethyl-4-(2-bromo-3-phenylbenzyloxy)-5-chloro-2-(cyclopropylmethoxy)benzylamine], the figure is 1150 nM; as for `CN(C)C(=O)COc1cc(OCc2cccc(-c3ccccc3)c2Br)c(Cl)cc1CNC(CO)C(=O)O` (stereo not shown) [Example 6], 42.5 nM. `C[C@@H](O)[C@H](NCc1cc(Cl)c(OCc2cccc(-c3ccccc3)c2Br)cc1OCC1CC1)C(=O)O` [Example 8, N-(4-(2-bromo-3-phenylbenzyloxy)-5-chloro-2-(cyclopropylmethoxy)benzyl)threonine]: the 50% inhibitory concentration (IC50) is 10.2 nM. Still for that read-out and setting: the value for `CC(=O)NCCNCc1cc(Cl)c(OCc2cccc(-c3ccccc3)c2Br)cc1OCC1CC1` [Example 10, N-acetylaminoethyl-4-(2-bromo-3-phenylbenzyloxy)-5-chloro-2-(cyclopropylmethoxy)benzylamine] was 1000 nM. Still for that read-out and setting: the value for `NC(=O)NCCC[C@H](NCc1cc(Cl)c(OCc2cccc(-c3ccccc3)c2Br)cc1OCC1CC1)C(=O)O` [Example 11, N-(4-(2-bromo-3-phenylbenzyloxy)-5-chloro-2-(cyclopropylmethoxy)benzyl)Citrulline] was 1410 nM.

Consider `CON(C)C(=O)COc1cc(OCc2cccc(-c3ccccc3)c2Br)c(Cl)cc1CN[C@@H](CO)C(=O)O` [Example 12, N-(4-(2-bromo-3-phenylbenzyloxy)-5-chloro-2-(N-methoxy-N-methylcarbamoylmethoxy)benzyl)serine], for which the concentration for half-maximal inhibition (IC50) worked out at 191 nM. Consider `O=C(O)[C@H](CO)NCc1cc(Cl)c(OCc2cccc(-c3ccccc3)c2Br)cc1OCC(=O)N1CCOCC1` [Example 13, N-(4-(2-bromo-3-phenylbenzyloxy)-5-chloro-2-(2-morpholino-2-oxoethoxy)benzyl)serine], for which the concentration for half-maximal inhibition (IC50) was 41.3 nM. Same read-out and setting: as for `O=C(O)[C@H](CO)NCc1cc(Cl)c(OCc2cccc(-c3ccccc3)c2Br)cc1OCC1CC1` [Example 14, (S)—N-(4-(2-bromo-3-phenylbenzyloxy)-5-chloro-2-(cyclopropylmethoxy)benzyl)serine], the figure is 41.7 nM. Still for that read-out and setting: as for `O=C(COc1cc(OCc2cccc(-c3ccccc3)c2Br)c(Cl)cc1CN1CCCC[C@H]1C(=O)O)NO` [Example 15, (S)—N-(4-(2-bromo-3-phenylbenzyloxy)-5-chloro-2-(N-hydroxycarbamoylmethoxy)benzyl)Pipecolinic Acid], the figure is 183 nM.

Consider `O=C(O)[C@@H]1C[C@H](O)CN1Cc1cc(Cl)c(OCc2cccc(-c3ccc4c(c3)OCCO4)c2Br)cc1OCC1CC1` [Example 17, (S,S)—N-(4-(2-bromo-3-(2,3-dihydrobenzo[b][1,4]dioxin-6-yl)benzyloxy)-5-chloro-2-(cyclopropylmethoxy)benzyl)-4-hydroxyproline], for which the IC50 stood at 40.5 nM.

The test system of the next experiment is pleural mesothelioma (PM).
Assay: not given
The settings on record: 25 patients with pleural mesothelioma; cited from earlier work.
As to pembrolizumab [Keytruda], the disease control rate was 76% and the “overall response rate (ORR)” value was 28%.

For another experiment, the system named is advanced Hodgkin's lymphoma (HL).
Assay: not given
The conditions noted are these: patients with no treatment response to any approved drug; cited from earlier work.
Take nivolumab [Opdvio]: the “treatment outcome in advanced Hodgkin's lymphoma” value was “complete remission”. For the compound pembrolizumab [Keytruda], the “treatment outcome in advanced Hodgkin's lymphoma” value is on record as “complete remission”.
